Measurements published in patent US20040234555A1, “Swine growth promoters and method of promoting swine growth” (priority 2001, published 2004).

Tests used:
piglets = assay: Growth of piglets given feed with the additive from the 14th day after birth (Example 2); assay type: in vivo, pig
Method: Using piglets born during a period of from October through November in 2000, feeding was carried out on the 14th day after their birth. […] In this case, the test was carried out using 10 head in each plot, and the average values were calculated.

Large Yorkshire piglets = assay: Growth and blood examination of piglets after a single administration on the third day after birth (Example 1)
Method: Thereafter, usual management was carried out, feeding was started on the 14th day after birth, and body weights were measured and blood samples were collected on the 21st day after birth to carry out inspections in accordance with usual way. Also, body weights were measured at the time of shipping after about 6 months, and the number of days reaching a shipping body weight criterion of 110 kg (required days for 110 kg) was calculated. The tests were carried out using 12 animals in each plot, and the values were calculated as average values by excluding pigs which came off the test due to a disease and the like.
DG (daily gain; kg/day)=shipping body weight (kg)÷raised days (day)
Required days for 110 kg (day)=110 (kg)÷DG (kg/day)

[1] = 21st day after birth, treatment on 3rd day after birth

Cl.NCC(=O)CCC(=O)O [ALA, 5-aminolevulinic acid hydrochloride]
Required days for 110 kg (piglets; 10 mg 5-aminolevulinic acid hydrochloride per 1 kg feed, with or without 10 mg ferric ammonium citrate per 1 kg feed, 10 head per plot): 172
Growth (in words) (piglets; feed additive from 14th day after birth): markedly enhanced
Body weight: relative value to 100 at the commencement of the test on the 3rd day after birth (Large Yorkshire piglets; 21st day after birth): 233%
B12: vitamin B12 concentration in serum (Large Yorkshire piglets; [1]): 240 pg/mL
Fe: serum iron concentration in serum (Large Yorkshire piglets; [1]): 44 µg/dL
Hb: hemoglobin concentration in whole blood sample (Large Yorkshire piglets; [1]): 8.5 g/dL
Ht: blood cell volume ratio in whole blood sample (Large Yorkshire piglets; [1]): 30.5%
TP: total serum protein concentration in serum (Large Yorkshire piglets; [1]): 5.8 g/dL
Required days for 110 kg (number of days reaching shipping body weight criterion of 110 kg) (Large Yorkshire piglets; calculated from shipping body weight after about 6 months, 110 kg ÷ daily gain): 183 days
Frequency of disease onset (Large Yorkshire piglets; examination about 6 months after birth, 12 animals per plot): 0
Pigs which came off the test system due to a disease (Large Yorkshire piglets; in and after the 21st day): diseases were not found
Pigs which came off the test plots due to a disease and the like (Large Yorkshire piglets; until the 21st day after birth): not found
